Source: patent EP2815749A1, “Solid form of 4-amino-2-(2,6-dioxopiperidine-3-yl)isoindoline-1,3-dione having specified X-ray diffraction pattern” (IP Gesellschaft für Management mbH, priority 2013, dated 2014)
Structures can show the parent of a compound that is named as a salt.

Key:
[1] = In vivo pharmacokinetics of Compound (VI) free base and hemisulfate salt capsules; settings: dogs, oral capsule, 150 mg of Compound (VI) (or equivalent), after pretreatment with famotidine (40 mg)
Experimental: An aliquot of 0.050 mL of dog EDTA plasma was used for the assay. […] A 450 µï^ portion of the organic layer was removed and evaporated to dryness. The residue was reconstituted in 300 µl, of the reconstitution solution (30% acetonitrile in 10 mM NH40Ac with 0.01% acetic acid). All liquid transfer steps were performed using a Perkin Elmer JANUS Mini® liquid handler except for the addition of the internal standard solution. A 5 µï^ aliquot of the extracted sample was injected to uHPLC-MS/MS system. The uHPLC was performed on a LEAP 4X Ultra uHPLC system with LEAP HTC PAL autosampler. Mobile phase A contained 10 mM NH4OAc and 0.01% acetic acid in ACN/water (10:90), and mobile phase B contained 10 mM NH4OAc and 0.01% acetic acid in ACN/water (90: 10). […] The flow rate was 0.6 mL/min and column temperature was maintained at 60°C condition. Detection was accomplished using an AB Sciex Triple Quad 5500 mass spectrometer in positive ESI with turbo ion spray ionization and using multiple reaction monitoring (MRM) mode. […] Data acquisition and quantification were performed using AB Sciex Analyst® 1.5.1 software.

[2] = Salt screening and crystalline salt characterization of Compound (VI); settings: for Hygroscopicity: ambient temperature and relative humidity conditions, hemisulfate salt
Experimental: The screening examined acid type, acid level (equivalents), and/or type of crystallization solvent. Each plate contained 96 well plates (8 rows of 12 columns per plate). […] The solution (12.5 mL) was transferred to 24 vials. To each vial was added 0.25 M EtOH stock solutions of the following acids:
The content of each vial was transferred to 12 crystallization wells and evaporated to dryness. Upon evaporation, each well was charged with 100 µl of solvent using a robotic liquid handler. The following crystallization solvents were tested: methyl isobutyl ketone (MIBK), ethyl acetate, toluene, THF, acetonitrile, acetone, isopropanol, ethanol, methanol, 1,2-dichloroethylene, isopropanol/water (50:50), and water. Next, the plates were sealed with Teflon septa and subjected to temperature cycling. […] After the heating/cooling cycle, the contents of the wells were characterized by birefringent imaging. Perceived crystalline hits were further characterized by PXRD analysis.

Structure (SMILES) | bioavailability ([1]; listed as Compound (VI) free base) [%] | Chemical stability [2] | Physical stability [2] | Hygroscopicity [2] | Hygroscopicity ([2]; listed as Sulfuric acid) | bioavailability ([1]; hemisulfate salt) [%]
N[C@@H]1c2cccnc2[C@H](OC(=O)N2CCC(n3c(=O)[nH]c4ncccc43)CC2)CC[C@H]1c1cccc(F)c1F [Compound (VI), N-(5S,6S,9R)-5-amino-6-(2,3-10-difluorophenyl)-6,7,8,9-tetrahydro-5H-cyclohepta[b]pyridin-9-yl-4-(2-oxo-2,3-dihydro-1H-imidazo[4,5-b]pyridin-1-yl)piperidine-1-carboxylate] | 4.54 | – | – | – | – | –
N[C@@H]1c2cccnc2[C@H](OC(=O)N2CCC(n3c(=O)[nH]c4ncccc43)CC2)CC[C@H]1c1cccc(F)c1F [hemisulfate salt of Compound (VI), (5S,6S,9R)-5-amino-6-(2,3-dfluorophenyl)-6,7,8,9-tetrahydro-5H-cyclohepta[b] pyridin-9-yl 4-(2-oxo-2,3-dihydro-1 H-imidazo[4,5-b]pyridin-1-yl)piperidine-1-carboxylate, hemisulfate salt] | – | chemically stable | physically stable | low hygroscopicity | low/non-hygroscopic at ambient temperatures and relative humidity conditions | 34.73
